EP4729519A1, “CRYSTAL FORM OF ENPP1 INHIBITOR” (CSPC Zhongqi Pharmaceutical Technology (Shijiazhuang) Co., …, priority 2023, dated 2024)
Where two headings read alike, the source gives them in different places.

Experiments:
[1] = Pharmacokinetic test in mice, plasma concentration by LC-MS/MS; format: in vivo, CD-1 male mice; settings: male, CD-1, mouse; for AUC(0-t): read-out: AUC0-24h
[2] = system: SD rat model of myocardial ischemia; assay: Rat myocardial ischemia model (LAD ligation), echocardiography and Masson staining; format: in vivo; settings: rats; for reduction of the degree of fibrosis compared with the vehicle control group: Masson staining
Description: This study aimed to evaluate the pharmacodynamic effect of the compound of formula (I) in a SD rat model of myocardial ischemia.
After the animals had acclimated to the facility for one week, the model was established by ligation of the left anterior descending coronary artery (LAD). After model establishment, the rats were administered penicillin (80,000 units/rat, i.m.) for 3 days, and disinfected to prevent infection.
One day after model establishment, the modeled animals were randomly divided into 4 groups according to the baseline body weight and echocardiographic imaging indicators, with 4 animals in each sham group (Sham) and 6 animals in each myocardial infarction model group (MI), and drug administration was then initiated. The control group was given the blank vehicle: 5% DMSO + 45% PEG400 + 50% H2O (1% CMC-Na). The experimental groups were administered by oral gavage at doses of 30 mg/kg and 75 mg/kg, respectively, twice daily for 28 consecutive days. The body weights of the animals were monitored daily after administration, and echocardiographic imaging indicators were measured on days 7 and 28. The primary indicators of echocardiographic evaluation were left ventricular fractional shortening (FS) and left ventricular ejection fraction (LVEF). After the echocardiographic measurement on day 28, heart tissues were collected in a tissue fixative for pathological analysis by Masson's trichrome staining.

hENPP1 enzyme = molecular target: T1, hENPP1 enzyme (Homo sapiens, UniProt P22413); assay: ENPP1 enzymatic inhibition test in vitro (TMP-pNP hydrolysis, OD405); format: biochemical; settings: TMP-pNP substrate, pH 9.5, 37 °C, 0.5 h
T1 sequence (P22413 1-925): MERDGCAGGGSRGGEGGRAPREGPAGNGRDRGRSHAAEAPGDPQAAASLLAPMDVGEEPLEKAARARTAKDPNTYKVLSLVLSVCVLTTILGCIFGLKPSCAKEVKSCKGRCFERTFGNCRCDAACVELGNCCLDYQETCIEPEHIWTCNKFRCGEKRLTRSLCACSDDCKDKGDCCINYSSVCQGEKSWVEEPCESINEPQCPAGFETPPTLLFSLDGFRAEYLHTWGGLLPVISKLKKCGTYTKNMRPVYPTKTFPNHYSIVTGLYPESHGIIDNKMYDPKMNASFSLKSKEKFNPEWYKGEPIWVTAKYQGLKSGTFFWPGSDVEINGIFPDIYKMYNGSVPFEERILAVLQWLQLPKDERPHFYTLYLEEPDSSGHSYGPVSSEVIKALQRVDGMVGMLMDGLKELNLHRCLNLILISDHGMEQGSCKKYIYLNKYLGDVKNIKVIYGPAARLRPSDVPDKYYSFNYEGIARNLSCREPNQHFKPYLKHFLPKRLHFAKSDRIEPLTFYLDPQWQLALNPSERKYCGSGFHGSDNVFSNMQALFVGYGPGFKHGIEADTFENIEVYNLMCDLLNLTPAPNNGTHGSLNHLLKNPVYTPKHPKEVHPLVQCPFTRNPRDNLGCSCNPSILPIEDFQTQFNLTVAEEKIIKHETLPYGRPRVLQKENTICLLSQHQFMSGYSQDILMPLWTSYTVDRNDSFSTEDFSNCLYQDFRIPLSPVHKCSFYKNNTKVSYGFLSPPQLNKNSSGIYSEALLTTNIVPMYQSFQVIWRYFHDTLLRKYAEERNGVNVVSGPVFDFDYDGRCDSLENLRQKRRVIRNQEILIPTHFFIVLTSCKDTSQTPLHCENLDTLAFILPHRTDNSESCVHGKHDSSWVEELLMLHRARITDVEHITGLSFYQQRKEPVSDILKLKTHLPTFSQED
From the text: ENPP1 is a transmembrane glycoprotein capable of hydrolyzing nucleotides and derivatives with nucleotide-5'-monophosphate structures. ENPP1 is capable of hydrolyzing artificially synthesized 5'-p-nitrophenyl monophosphate (TMP-pNP) into nucleotide 5'-monophosphate and p-nitrophenol, while p-nitrophenol is a chromogenic product. The production amount of p-nitrophenol product can be directly measured by its absorbance at 405 nm, which is directly proportional to the enzyme activity.
100X serial gradient dilutions of compound were prepared with DMSO, starting from a stock concentration of 1 mM, and using a 4-fold serial gradient dilution to make 10 concentration points. 300 Nanoliter of compounds at gradient concentrations were transferred to a 384-well assay plate (final concentration: starting at 10 µM, 4-fold serial gradient dilution, 10 concentration points) by using Echo. First, 15 µL of 0.2 ng/uL hENPP1 enzyme (2× final concentration) prepared in an assay buffer (250 mM NaCl, 50 mM Tris, pH = 9.5) was added to each well. […] After incubation at 37 °C for 0.5 h, the OD405 nm value was read by the microplate reader. The percentage of inhibition rate was calculated using the formula: %Inhibition Rate=(ODhigh signal control - ODsample well) / (ODhigh signal control - ODlow signal control)*100. The IC50 value was calculated using four-parameter fitting. […]

[3] = system: pancreatic cancer Pan02 cells; assay: Mouse subcutaneous homograft tumour model of pancreatic cancer Pan02; format: in vivo, C57BL/6 mice; settings: 20 mg/kg oral gavage twice daily
Description: • 1. Experimental Objective: The in vivo efficacy of the test drug in the mouse subcutaneous homograft tumour model of pancreatic cancer Pan02 cells was evaluated. • 2. Experimental Methods • 2.1 Cell Culture Mouse pancreatic cancer Pan02 cells were cultured in monolayer in vitro in DMEM medium supplemented with 10% fetal bovine serum, 0.01 mg/mL sinsulin, 1% penicillin/streptomycin/amphotericin B in an incubator at 37 °C with 5% CO2. When the cell saturation was 80%-90% and the number reached the requirement, the cells were harvested, counted, and inoculated. • 2.2 Animals C57BL/6 mice, female, 6-8 weeks old, weighing 18-22 g. The mice were provided by Shanghai Xipu-Bikai Laboratory Animal Co., Ltd., or other suppliers. • 2.3 Tumour Inoculation and Animal Grouping and administration 0.1 Milliliter of Pan02 cells (5×10^6 cells) were inoculated subcutaneously into the right hind back of each mouse, and animal grouping and administration began when the average tumour volume reached about 100-200 mm^3. Animals were weighed and tumour volumes were measured before administration. Mice were randomly divided into groups based on the tumour volume, with 8 mice in each group. […] Tumor volume was calculated using the formula: V=0.5a×b^2, where a and b represented the long and short diameters of the tumour, respectively. […]

[4] = system: C57 BL/6 mouse model of myocardial ischemia; assay: Mouse myocardial ischemia model (LAD ligation), echocardiography and Masson staining; format: in vivo; settings: mice; for reduction of the degree of fibrosis compared with the vehicle control group: Masson staining; for increase of left ventricular ejection fraction (LVEF) compared with the vehicle control group / increase of left ventricular fractional shortening (FS) compared with the vehicle control group: day 1; for increase of left ventricular ejection fraction (LVEF) / increase of left ventricular fractional shortening (FS): day 7
From the text: This study aimed to evaluate the pharmacodynamic effect of the compound of formula (I) in a C57 BL/6 mouse model of myocardial ischemia.
After the animals had acclimated to the facility for one week, they were divided into four groups based on their body weights on the day before surgery, with 6 animals in the sham group (Sham) and 8 animals in the model group (MI). On the next day, the animals underwent myocardial ischemia surgery for modeling (the mice in the Sham group only underwent thoracotomy and threading without ligation). The model was established by ligation of the left anterior descending coronary artery (LAD). After model establishment, the mice were administered penicillin (20,000 units/mouse, i.m.) for 3 days, and disinfected to prevent infection.
Each group of animals was administered the corresponding compounds one hour before surgery. The control group (Vehicle) was administered the vehicle: 5% DMSO+45% PEG400+50% H2O (1% CMC-Na). The experimental groups were administered by oral gavage at doses of 4 mg/kg and 20 mg/kg, respectively, twice daily for 28 consecutive days. The body weights of the animals were monitored daily after administration, and echocardiographic imaging indicators were measured on days 1, 7 and 28. The primary indicators of echocardiographic evaluation were left ventricular fractional shortening (FS) and left ventricular ejection fraction (LVEF). After the echocardiographic measurement on day 28, heart tissues were collected in a tissue fixative for pathological analysis by Masson's trichrome staining.

[5] = 30mpk oral gavage twice daily, 7th day
[6] = 30mpk oral gavage twice daily, day 28
[7] = 75mpk oral gavage twice daily, 7th day
[8] = 75mpk oral gavage twice daily, day 28

SMILES: COc1ccc2c3c(cnc2n1)COC(=O)N3Cc1c(F)cc(S(N)(=O)=O)cc1F [Compound of Formula (I), 3,5-difluoro-4-((8-methoxy-2-oxo-2H-[1,3]oxazino[5,4-c][1,8]naphthyridin-1(4H)-yl)methyl)benzenesulfonamide]
- clearance ([1]; 2 mg/kg, IV, 2mpk): 3.2 mL/min/kg
- half-life ([1]; 2 mg/kg, IV, 2mpk): 321 min
- AUC(0-t) ([1]; 2 mg/kg, IV, 2mpk): 10000 ng·h/mL
- Vd ([1]; 2 mg/kg, IV, 2mpk, read-out: Vss): 1.08 L/kg
- Cmax ([1]; 10 mg/kg, PO, 10mpk): 8080 ng/mL
- Tmax ([1]; 10 mg/kg, PO, 10mpk): 2 h
- half-life ([1]; 10 mg/kg, PO, 10mpk): 210 min
- AUC(0-t) ([1]; 10 mg/kg, PO, 10mpk): 47800 ng·h/mL
- reduction of the degree of fibrosis compared with the vehicle control group ([2]; 30 mg/kg twice daily, 28 days): 5.2%
- reduction of the degree of fibrosis compared with the vehicle control group ([2]; 75 mg/kg twice daily, 28 days): 6.5%
- effect on body weight ([2]; 30 and 75 mg/kg twice daily, 28 days): no significant effect on body weight
- increase of LVEF [2, 5]: 11.43%
- increase of left ventricular fractional shortening (FS) [2, 5]: 9.73%
- increase of LVEF [2, 6]: 18.75%
- increase of left ventricular fractional shortening (FS) [2, 6]: 13.01%
- increase of LVEF [2, 7]: 18.85%
- increase of left ventricular fractional shortening (FS) [2, 7]: 12.62%
- increase of LVEF [2, 8]: 23.8%
- increase of left ventricular fractional shortening (FS) [2, 8]: 15.88%
- IC50 (hENPP1 enzyme): 0.05 nM
- effect on the body weight of the mice ([3]; 16 days): no inhibitory effect on the body weight
- TGI ([3]; after administration for 16 days, p<0.05 vs control group): 43.4%
- reduction of the degree of fibrosis compared with the vehicle control group ([4]; 4 mg/kg twice daily, 28 days): 8.8%
- reduction of the degree of fibrosis compared with the vehicle control group ([4]; 20 mg/kg twice daily, 28 days): 9.6%
- effect on body weight ([4]; 4 and 20 mg/kg twice daily, 28 days): without any significant effect on body weight
- increase of left ventricular ejection fraction (LVEF) compared with the vehicle control group ([4]; 4 mpk oral gavage twice daily): 15%
- increase of left ventricular fractional shortening (FS) compared with the vehicle control group ([4]; 4 mpk oral gavage twice daily): 7%
- increase of left ventricular ejection fraction (LVEF) ([4]; 4 mpk oral gavage twice daily): 23.4%
- increase of left ventricular fractional shortening (FS) ([4]; 4 mpk oral gavage twice daily): 12.2%
- increase of left ventricular ejection fraction (LVEF) compared with the vehicle control group ([4]; 20 mpk oral gavage twice daily): 10%
- increase of left ventricular fractional shortening (FS) compared with the vehicle control group ([4]; 20 mpk oral gavage twice daily): 5%
- increase of left ventricular ejection fraction (LVEF) ([4]; 20 mpk oral gavage twice daily): 23.3%
- increase of left ventricular fractional shortening (FS) ([4]; 20 mpk oral gavage twice daily): 12.3%
- LVEF and FS in the left ventricle ([4]; day 28, vehicle control group further deteriorated): further maintained the LVEF and FS
